What was measured:
[1] = tested on: MAO-A; set-up: method as in PMID 16356714, PMID 20708306, PMID 19043245, PMID 25707011, PMID 25922182; details: lead structure of Chart 1, earlier series of the group ref 21–25; cited from earlier work
[2] = substrate: COc1cc(/C=N/NC(=O)CNC(=O)c2cc(Cl)ccc2/N=C/c2ccccc2)ccc1O; experiment: Oxidation of compound by MAO-A in the standard coupled assay in the absence of tyramine; type: biochemical, human; details: other: compound as substrate
Method: Compound 6 in the screening assay with 10 µM inhibitor gave an increased rate of appearance of fluorescence indicating faster production of the product H2O2 (not the slower rate observed with other compounds that inhibit MAO activity).
Figure 3. Oxidation of 6 (squares) but not 12d (triangles) by MAO-A. The concentration of compound was varied in the standard assay coupled to the production of H2O2 but in the absence of the substrate tyramine.
The activity of MAO was determined using the coupled assay method of [41, 42] in which the product, H2O2, acts with horseradish peroxidase to convert 10-acetyl-3,7-dihydroxyphenoxazine to the fluorescent resorufin. […] For compounds that gave more than 30% inhibition, the IC50 was determined using seven concentrations of each compound (0.01–300 μM) with substrate at 2 × KM. […] The data were analysed using the equation for a three-parameter curve in Graphpad PRISM v. 4, and the % inhibition calculated from the top and bottom of the resulting curve.

Molecule	MAO-A activity PIC50 [1]	Km [2] [µM]
C/C(=N/NC(=O)Cn1c(=O)c(Cc2ccccc2)nc2ccccc21)c1ccc(O)cc1 [lead structure]	7.8	–
MAO-A (Homo sapiens) (protein) MENQEKASIAGHMFDVVVIGGGISGLSAAKLLTEYGVSVLVLEARDRVGGRTYTIRNEHVDYVDVGGAYVGPTQNRILRLSKELGIETYKVNVSERLVQYVKGKTYPFRGAFPPVWNPIAYLDYNNLWRTIDNMGKEIPTDAPWEAQHADKWDKMTMKELIDKICWTKTARRFAYLFVNINVTSEPHEVSALWFLWYVKQCGGTTRIFSVTNGGQERKFVGGSGQVSERIMDLLGDQVKLNHPVTHVDQSSDNIIIETLNHEHYECKYVINAIPPTLTAKIHFRPELPAERNQLIQRLPMGAVIKCMMYYKEAFWKKKDYCGCMIIEDEDAPISITLDDTKPDGSLPAIMGFILARKADRLAKLHKEIRKKKICELYAKVLGSQEALHPVHYEEKNWCEEQYSGGCYTAYFPPGIMTQYGRVIRQPVGRIFFAGTETATKWSGYMEGAVEAGERAAREVLNGLGKVTEKDIWVQEPESKDVPAVEITHTFWERNLPSVSGLLKIIGFSTSVTALGFVLYKYKLLPRS	–	35.5
